How the values were obtained:
[1] = test system: gp160 processing; details: cell-permeable peptide; cited from earlier work
[2] = target: furin (recombinant soluble hfurin) (Homo sapiens, UniProt P09958); test: Inhibition assay of furin with fluorogenic substrate Pyr-RTKR-MCA; assay type: biochemical; details: up to 100 μM heparin (20 μM or 100 μM); fluorescence
Sequence of furin (recombinant soluble hfurin) (P09958 108-715 limits assumed): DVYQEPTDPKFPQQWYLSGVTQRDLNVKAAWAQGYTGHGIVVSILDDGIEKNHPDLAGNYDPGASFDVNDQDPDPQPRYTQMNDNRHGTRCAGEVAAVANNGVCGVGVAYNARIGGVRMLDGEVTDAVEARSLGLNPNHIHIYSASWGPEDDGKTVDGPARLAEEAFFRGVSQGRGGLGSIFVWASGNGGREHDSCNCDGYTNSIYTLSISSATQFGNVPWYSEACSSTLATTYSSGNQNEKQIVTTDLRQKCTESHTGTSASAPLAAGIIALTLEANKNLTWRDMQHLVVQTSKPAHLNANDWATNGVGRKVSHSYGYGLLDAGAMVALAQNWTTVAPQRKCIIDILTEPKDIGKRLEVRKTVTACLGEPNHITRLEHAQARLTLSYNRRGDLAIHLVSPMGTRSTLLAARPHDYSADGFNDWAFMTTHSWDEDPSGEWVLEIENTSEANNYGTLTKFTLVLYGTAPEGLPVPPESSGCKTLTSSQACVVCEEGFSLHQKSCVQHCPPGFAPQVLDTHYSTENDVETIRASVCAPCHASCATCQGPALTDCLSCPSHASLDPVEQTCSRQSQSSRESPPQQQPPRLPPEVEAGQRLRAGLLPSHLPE

Substance	Interference with gp160 processing [1]	Influence on furin activity on Pyr-RTKR-MCA processing [2]
KIEPLGVAPTKAKRRVVQREKR [22mer]	interferes with gp160 processing	–
heparin	–	did not influence furin activity

Reference: publication PMC7125586 (Febs Letters, 2007)
